Reference: patent publication US9913858B2, “Prevention and treatment of toxicosis” (priority 2013, dated 2018)
Read-outs that look alike come from different tables or passages of the source.

Key:
cerebellum = format: in vivo; conditions: sheep cerebellum
Method: A full clinical examination was performed prior to euthanasia. At euthanasia, 100 I.U. heparin (Provet Riverina Pty Ltd) was injected into the jugular vein, followed shortly by Lethabarb (20 mL/40 kg LW). Immediately after euthanasia, the ventral articulation of C1 was exposed and cerebrospinal fluid (CSF) collected using a 23 g needle. The head was then removed and subjected to perfusion fixation. Briefly, the carotid arteries were exposed and a small catheter inserted and ligated to secure the perfusion lines. Two liters of 0.1% phosphate buffered saline (PBS) containing 3000 I.U of heparin/L was then slowly perfused via the ligated vessels at a pressure of 90 mm Hg using a Microgon peristaltic Pump (Microgon, Laguna Hills, Calif.). Once complete this was replaced with 4% paraformaldehyde (Sigma-Alrich) in 0.1% PBS and a further two liters allowed to perfuse slowly through the tissues of the head. Once complete, catheters were removed and the whole head placed at 4° C. overnight to complete fixation. Twenty-four hours post perfusion fixation the brain was removed from the skull and placed in 10% formal saline for storage until dissection for processing to wax sections.
Concurrent to fixation perfusion of the head, a routine ovine necropsy was performed and all general tissues taken for routine histopathology. These were heart, lung, oesophagus and trachea, liver, spleen, gut (rumen, abomasum, ileocaecal junction, ileum, caecum and colon), skeletal muscle (gluteal, tricep and diaphram), kidney, pancreas, thymus, ileal and cranial lymph nodes as well as tissues from any gross abnormalities observed at time post necropsy. Other samples: subcutaneous fat, renal fat, gluteal muscle, kidney, faeces and rumen contents were collected and stored at −80° C. for future toxicological analysis. Samples for routine histopathology were fixed in 10% formal saline for a minimum of 48 hours before processing to wax using an automated wax embedder (Shandon Excelsior ES Tissue Processor, Thermo Fisher Scientific).
For histopathology, sections of brain and spinal cord included the following regions: mid cerebellar peduncle; mid and lateral sections of cerebellum; obex, occipital cortex; rostral colliculi; basal ganglia; frontal cortex; temporal cortex; thalamus; hippocampus; internal capsule; cervical, thoracic and lumbar spinal cord and pituitary. Other tissues examined for routine histopathology were kidney; lung; ileum; heart; liver including, gall bladder and bile duct; diaphragm; rumen; and colon. All sections were cut at 5 μm and stained with Haematoxylin and Eosin (H&E) using an automated staining system (Shandon Varistain Gemini ES Slide Stainer, Thermo Fisher Scientific).

[1] = system: lolitrem B toxicosis (Rye Grass Staggers); assay: Gait analysis and time to falling; format: in vivo, sheep; conditions: for time to falling: by context untreated, toxin only
Method: Gait analysis was performed on entry to the trial and at designated time points throughout the trial as described above. To achieve this, animals were moved from their individual pens to an external yard in their cohort groups (five animals, one from each treatment). Animals were then encouraged to move at a run, initially in a group and then individually, for a minimum of three minutes per animal whilst their movement was captured on video and gait observations recorded.
Once all animals had been analysed the whole cohort was returned to their individual pens. Gait abnormalities such as stumbling, falling or disorientation were noted, including observation of Type 1 or Type 2 gait changes as described in Combs et, al., (2014). Type I movement disorder is defined as an impaired alternating movement (dysdiadochokinesia), bunny-hopping gait and failure to maintain an appropriate direction. Type 2 movement disorder is defined by increasing rigidity of limbs on forced movement resulting finally in tonic fore and hind limb extension with the animal collapsing into sternal or lateral recumbency (Combs, Rendell et at 2014). Scores between those denoted above were considered as a gradation between the stated clinical observations. Analysis of gait was performed using the following scale in Table 2 and a composite score noted for each animal for each day during the end of trial protocol. A total score out of 30 was determined for each animal. The higher the score the greater the locomotory disturbance. Time to falling was determined post trial by analysis of video material,
Animals that met the entry criteria (severe Type 2 gait abnormality and falling) were submitted to the end-of-trial protocol. […] Animals were subjected to the following tests on days 1 and 3: gait analysis, full neurological examination, venous blood and urine sampling and EMG. Only gait analysis was performed on day 2.

[2] = system: lolitrem B toxicosis (Rye Grass Staggers); assay: Electromyography, tremor intensity; format: in vivo, sheep; conditions: lolitrem B intoxicated, EMG
Method: EMGs were recorded on entry to the trial, entry to the end of trial (Day 1) and date of post mortem (Day 3) using Powerlab™ (ADInstruments, Castle Hill, Australia) and data recorded using LabChart™ software (ADInstruments, Australia). In preparation, the fleece was shorn from an area over the triceps muscle and along brachiocephalicus muscle of the neck. EMG electrodes were attached to the skin using SuperGlue™. Muscle activity was recorded for a minimum of three minutes with the animal standing at rest with a band pass filter set at 100 Hz. Three minute EMG recordings were taken using Ag—AgCl surface electrodes over the triceps muscle on to entry to the trial, on first day of falling (Day 1) and 48 hours post treatment (Day 3). Data analysis was achieved by application of a Fast-Fourier transformation for statistical comparison. Area under the curve was then calculated at frequencies between 5 and 30 Hz to estimate tremor intensity.

[3] = Group 3: toxin plus acute treatment
[4] = Group 4: toxin plus prophylactic treatment
[5] = Group 5: prophylactic treatment only

## CC(C)=C[C@H]1O[C@H]2[C@H]3O[C@@]34[C@H](CC[C@@]3(C)[C@@]4(O)CC[C@H]4Cc5c([nH]c6ccc7c(c56)C[C@@H]5[C@@H](C7=O)C(C)(C)OC5(C)C)[C@@]43C)O[C@@H]2C(C)(C)O1 [lolitrem B]
cerebellum; Group 2: toxin only
  Incidence of Purkinje neuron vacuolation: 5/9
  Incidence of pyknotic cell bodies in granular layer: 9/9
  Incidence of spheroids, granular layer: 7/9
  Incidence of spheroids, molecular layer: 1/9
[1]; Group 2 sheep, untreated intoxicated, p=0.05
  composite gait scores over the same time course: increase
[1]; positive control sheep, toxic feed, not treated with potassium bromide
  animals falling, no improvement over the same time period: 7/7
[1]; printed as Group 3 Day 2
  time to falling: 59.0 ± 23.50 s
[1]; printed as Group 3 Day 3
  time to falling: 51.52 ± 20.23 s
[1]; sheep, Groups 2 and 3, toxic feed
  animals progressing to falling over the same timeframe (22 days): 5
[2]; Group 2 sheep, no treatment
  Day 1: Day 3 tremor intensity ratio, median: 2.03

## [Br-].[K+] [potassium bromide]
cerebellum; [3]
  Incidence of Purkinje neuron vacuolation: 2/9
  Incidence of pyknotic cell bodies in granular layer: 5/9
  Incidence of spheroids, granular layer: 7/9
  Incidence of spheroids, molecular layer: 0/9
cerebellum; [4]
  Incidence of Purkinje neuron vacuolation: 1/9
  Incidence of pyknotic cell bodies in granular layer: 9/9
  Incidence of spheroids, granular layer: 6/9
  Incidence of spheroids, molecular layer: 3/9
cerebellum; [5]
  Incidence of Purkinje neuron vacuolation: 0/9
  Incidence of pyknotic cell bodies in granular layer: 2/9
  Incidence of spheroids, granular layer: 1/9
  Incidence of spheroids, molecular layer: 3/9
[1]; Group 3 sheep, lolitrem B toxin, oral 300 mg/kg LW potassium bromide, p=0.001
  composite gait score, Day 1 (pre-treatment) to Day 2 (24 hours post treatment): significant reduction
[1]; intoxicated sheep, oral 300 mg/kg BW potassium bromide on day of falling
  time to falling in intoxicated animals: significantly improve
[1]; intoxicated sheep, oral 300 mg/kg BW potassium bromide on day of falling, 24 and 48 hours after treatment
  animals failing to fall when driven to movement for a continuous period of 5 minutes: 8/9
[1]; sheep, prophylactic potassium bromide plus toxic feed (Group 4)
  animals progressing to falling in the designated 22 days of treatment: one
[2]; Group 3 sheep, acute KBr treatment
  Day 1: Day 3 tremor intensity ratio: 0.81
